# Experimental data reported in patent publication US8329904B2, “Azacyclic derivatives” (Hoffmann-La Roche Inc., priority 2009, dated 2012).
# Target: T1, human HSL (Homo sapiens, UniProt Q05469)
# T1 construct: overlapping PCR to generate a full length human HSL ORF with a 3′-His6 tag; His6 (C); made in house; host or cells: High 5 insect cells (baculovirus, pFast-BAC)
# T1 sequence (Q05469 1-1076): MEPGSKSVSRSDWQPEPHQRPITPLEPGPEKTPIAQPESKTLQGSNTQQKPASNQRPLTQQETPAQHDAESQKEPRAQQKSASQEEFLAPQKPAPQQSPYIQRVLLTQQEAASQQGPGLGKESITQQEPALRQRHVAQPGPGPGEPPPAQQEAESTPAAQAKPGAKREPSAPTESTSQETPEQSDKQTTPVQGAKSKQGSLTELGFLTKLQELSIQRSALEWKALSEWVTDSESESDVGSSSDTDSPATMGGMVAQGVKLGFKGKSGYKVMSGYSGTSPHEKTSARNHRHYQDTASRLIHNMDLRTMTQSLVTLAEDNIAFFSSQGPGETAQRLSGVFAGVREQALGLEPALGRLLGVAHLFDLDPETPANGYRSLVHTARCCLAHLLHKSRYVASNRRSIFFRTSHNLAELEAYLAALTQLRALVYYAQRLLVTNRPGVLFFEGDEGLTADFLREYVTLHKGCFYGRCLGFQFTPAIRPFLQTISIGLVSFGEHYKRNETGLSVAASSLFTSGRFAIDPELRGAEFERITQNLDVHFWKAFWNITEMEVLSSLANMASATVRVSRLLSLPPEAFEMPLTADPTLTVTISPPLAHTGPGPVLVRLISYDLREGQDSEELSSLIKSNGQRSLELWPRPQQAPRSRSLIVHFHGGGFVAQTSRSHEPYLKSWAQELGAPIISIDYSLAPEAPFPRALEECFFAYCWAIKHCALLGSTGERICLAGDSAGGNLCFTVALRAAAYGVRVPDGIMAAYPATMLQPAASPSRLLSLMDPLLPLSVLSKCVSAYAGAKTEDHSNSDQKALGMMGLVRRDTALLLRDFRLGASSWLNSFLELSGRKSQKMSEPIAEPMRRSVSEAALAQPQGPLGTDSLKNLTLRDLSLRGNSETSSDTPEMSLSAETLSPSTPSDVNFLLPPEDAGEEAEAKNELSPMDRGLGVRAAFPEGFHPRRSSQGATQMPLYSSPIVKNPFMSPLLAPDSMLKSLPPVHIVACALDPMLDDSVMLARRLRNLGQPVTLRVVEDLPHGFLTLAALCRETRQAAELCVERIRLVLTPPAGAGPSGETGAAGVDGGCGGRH
# Test: Human Hormone-Sensitive Lipase (HSL) Enzyme Inhibition Assay
# Assay type: biochemical
# Settings: colorimetric assay, 2,3-dimercapto-1-propanol tributyrate (DMPT) substrate, 37° C. for 20 minutes, absorbance at 405 nm; read-out: HSL hum IC50
# Protocol: Production of Human Full Length Hormone Sensitive Lipase-His^6
# 1) Cloning: cDNA was prepared from commercial human brain polyA-+ RNA and used as a template in overlapping PCR to generate a full length human HSL ORF with a 3′-His6 tag. This full length insert was cloned into the pFast-BAC vector and the DNA-sequence of several single clones was verified. DNA from a correct full length clone with the 3′His6 tag was used to transform the E. coli strain DH10BAC. Resulting bacmid DNA was used to generate a titered baculovirus stock for protein generation.
# Cells were thawed. […] was done at 3×30 sec., Lubrol PX was added to 0.2% final concentration followed by stirring for 15 min. at 4° C. and centrifugation at 25 k×g, 60 min., 4° C. […] Supernatant was removed, the resin washed in the centrifuge vessel using 5 volumes of Base Buffer containing 0.2% Lubrol PX. Centrifugation was done again, then the supernatant discarded. The resin wass poured onto a 0.8 μm membrane in a disposable filter unit (Nalge 450-0080), and washed with 5 volumes of Base Buffer containing 0.2% Lubrol PX. It was then washed with 30 volumes of Base Buffer containing 60 mM imidazole pH 7.5 at 4° C. The protein was eluated with 5 volumes of 25 mM Tris-Cl, 300 mM NaCl, 200 mM imidazole, 10 mM 2-mercaptoethanol, pH 7.5 at 4° C. by tumbling resin with buffer end-over-end, 30 min., 4° C. The resin was captured on a 0.2 μm membrane disposable filter unit (Millipore SCGP U02 RE) and the eluate collected in the reservoir. The eluate was concentrated using a 30 k MWCO centrifugal filter device (Sartorius Vivascience Vivacell 100, VC1022), to 20 ml. It was then dialyzed overnight at 4° C., two times against 2 L of 10% glycerol, 25 mM Tris-Cl, 300 mM NaCl, 0.2 mM EDTA, 0.2 mM DTT, pH 7.5 at 4° C. The protein was filtered using a 0.22 μm disposable filter unit (Millipore SCGP00525). The protein concentration was calculated from absorbance at 280 nm, using 280=0.67 cm-1 mg-1. […] The protein was stored at −80° C.
# Human Hormone-Sensitive Lipase (HSL) Enzyme Inhibition Assay:
# HSL enzyme activity was measured by a colorimetric assay using 2,3-dimercapto-1-propanol tributyrate (Aldrich, St. Louis, Mo.) as a substrate. Typically, 1.5 mM 2,3-dimercapto-1-propanol tributyrate (DMPT) in 100 mM MOPS, pH 7.2, 0.2 mg/ml fatty acid-free BSA was prepared by sonication at 4° C. to homogenous suspension. Test compounds (2 mM stock in DMSO) were diluted 3 fold in series in DMSO. Compound solutions were diluted 24 fold in 1.5 mM DMPT containing solution and 18 ul per well was added to 384-well microplates (Corning Costar). Twelve microliters per well of human HSL (15 ug/ml) was added and the reaction mixture was incubated at 37° C. for 20 minutes. Six microliters of 12 mM dithio-bis-(2-nitrobenzoic acid) (DTNB) in DMSO plus 1.2% SDS and 0.6% Triton X-100 were added and the mixture was incubated at room temperature for 15 minutes. Product production was monitored by reading absorbance at 405 nm on an Envision Reader (PerkinElmer Life and Analytical Sciences, Shelton, Conn.).
row,SMILES,IC50 [nM]
1,"CCC(C)c1ccc(N2CCC3(CCN(C(=O)CC(C)(C)C)CC3)C2=O)cc1 (stereo not shown) [Example 46, 2-(4-sec-Butyl-phenyl)-8-(3,3-dimethyl-butyryl)-2,8-diaza-spiro[4.5]decan-1-one]",150
2,"O=C1N(CCc2ccc(Cl)cc2)CCC12CCN(S(=O)(=O)c1ccccc1Cl)CC2 [Example 47, 8-(2-Chloro-benzenesulfonyl)-2-[2-(4-chloro-phenyl)-ethyl]-2,8-diaza-spiro[4.5]decan-1-one]",40
3,"CS(=O)(=O)Oc1ccc(N2CCC3(CCN(S(=O)(=O)c4ccccc4Cl)CC3)C2=O)cc1 [Example 48, Methanesulfonic acid 4-[8-(2-chloro-benzenesulfonyl)-1-oxo-2,8-diaza-spiro[4.5]dec-2-yl]-phenyl ester]",30
4,"O=C1N(Cc2ccc(OC(F)(F)F)cc2)CCC12CCN(S(=O)(=O)c1ccccc1Cl)CC2 [Example 49, 8-(2-Chloro-benzenesulfonyl)-2-(4-trifluoromethoxy-benzyl)-2,8-diaza-spiro[4.5]decan-1-one]",150
5,"Cc1ccc(S(=O)(=O)N2CCC3(CCN(c4ccc(OS(C)(=O)=O)cc4)C3=O)CC2)s1 [Example 50, Methanesulfonic acid 4-[8-(5-methyl-thiophene-2-sulfonyl)-1-oxo-2,8-diaza-spiro[4.5]dec-2-yl]-phenyl ester]",60
6,"CS(=O)(=O)c1ccccc1S(=O)(=O)N1CCC2(CCN(c3ccc(OC(F)(F)F)cc3)C2=O)CC1 [Example 51, 8-(2-Methanesulfonyl-benzenesulfonyl)-2-(4-trifluoromethoxy-phenyl)-2,8-diaza-spiro[4.5]decan-1-one]",140
7,"CCc1ccc(N2CCC3(CCN(S(=O)(=O)c4ccccc4S(C)(=O)=O)CC3)C2=O)cc1 [Example 52, 2-(4-Ethyl-phenyl)-8-(2-methanesulfonyl-benzenesulfonyl)-2,8-diaza-spiro[4.5]decan-1-one]",210
8,"CC(C)(C)CS(=O)(=O)N1CCC2(CCN(c3ccc(OS(C)(=O)=O)cc3)C2=O)CC1 [Example 53, Methanesulfonic acid 4-[8-(2,2-dimethyl-propane-1-sulfonyl)-1-oxo-2,8-diaza-spiro[4.5]dec-2-yl]-phenyl ester]",110
9,"CCc1ccc(N2CCC3(CCN(S(=O)(=O)c4ccccc4OC(F)(F)F)CC3)C2=O)cc1 [Example 54, 2-(4-Ethyl-phenyl)-8-(2-trifluoromethoxy-benzenesulfonyl)-2,8-diaza-spiro[4.5]decan-1-one]",30
10,"O=C1N(c2ccc(OC(F)(F)F)cc2)CCC12CCN(S(=O)(=O)c1ccccc1OC(F)(F)F)CC2 [Example 55, 8-(2-Trifluoromethoxy-benzenesulfonyl)-2-(4-trifluoromethoxy-phenyl)-2,8-diaza-spiro[4.5]decan-1-one]",20
11,"CS(=O)(=O)Oc1ccc(N2CCC3(CCN(S(=O)(=O)c4ccccc4OC(F)(F)F)CC3)C2=O)cc1 [Example 56, Methanesulfonic acid 4-[1-oxo-8-(2-trifluoromethoxy-benzenesulfonyl)-2,8-diaza-spiro[4.5]dec-2-yl]-phenyl ester]",20
12,"CCCc1ccc(N2CCC3(CCN(S(=O)(=O)c4ccccc4S(C)(=O)=O)CC3)C2=O)cc1 [Example 57, 8-(2-Methanesulfonyl-benzenesulfonyl)-2-(4-propyl-phenyl)-2,8-diaza-spiro[4.5]decan-1-one]",140
13,"CCCc1ccc(N2CCC3(CCN(S(=O)(=O)c4ccccc4OC(F)(F)F)CC3)C2=O)cc1 [Example 58, 2-(4-Propyl-phenyl)-8-(2-trifluoromethoxy-benzenesulfonyl)-2,8-diaza-spiro[4.5]decan-1-one]",40
14,"CS(=O)(=O)Oc1ccc(N2CCC3(CCN(S(=O)(=O)c4cccs4)CC3)C2=O)cc1 [Example 59, Methanesulfonic acid 4-[1-oxo-8-(thiophene-2-sulfonyl)-2,8-diaza-spiro[4.5]dec-2-yl]-phenyl ester]",30
15,"CC(C)CS(=O)(=O)N1CCC2(CCN(c3ccc(CC(F)(F)F)cc3)C2=O)CC1 [Example 60, 8-(2-Methyl-propane-1-sulfonyl)-2-[4-(2,2,2-trifluoro-ethyl)-phenyl]-2,8-diaza-spiro[4.5]decan-1-one]",40
16,"CCC(C)c1ccc(N2CCC3(CCN(S(=O)(=O)CC(C)C)CC3)C2=O)cc1 (stereo not shown) [Example 61, 2-(4-sec-Butyl-phenyl)-8-(2-methyl-propane-1-sulfonyl)-2,8-diaza-spiro[4.5]decan-1-one]",70
17,"CC(C)CS(=O)(=O)N1CCC2(CCN(c3ccc(OS(C)(=O)=O)cc3)C2=O)CC1 [Example 62, Methanesulfonic acid 4-[8-(2-methyl-propane-1-sulfonyl)-1-oxo-2,8-diaza-spiro[4.5]dec-2-yl]-phenyl ester]",250
18,"CC(C)CS(=O)(=O)N1CCC2(CCN(c3ccc(OCC(F)(F)F)cc3)C2=O)CC1 [Example 63, 8-(2-Methyl-propane-1-sulfonyl)-2-[4-(2,2,2-trifluoro-ethoxy)-phenyl]-2,8-diaza-spiro[4.5]decan-1-one]",210
19,"CC(C)CS(=O)(=O)N1CCC2(CCN(c3ccc(OS(=O)(=O)C4CC4)cc3)C2=O)CC1 [Example 64, Cyclopropanesulfonic acid 4-[8-(2-methyl-propane-1-sulfonyl)-1-oxo-2,8-diaza-spiro[4.5]dec-2-yl]-phenyl ester]",220
20,"CC(C)CS(=O)(=O)N1CCC2(CCN(c3ccc(C4CC4)cc3)C2=O)CC1 [Example 65, 2-(4-Cyclopropyl-phenyl)-8-(2-methyl-propane-1-sulfonyl)-2,8-diaza-spiro[4.5]decan-1-one]",100
21,"CC(C)CS(=O)(=O)N1CCC2(CCN(c3ccc(OC4CCCC4)cc3)C2=O)CC1 [Example 66, 2-(4-Cyclopentyloxy-phenyl)-8-(2-methyl-propane-1-sulfonyl)-2,8-diaza-spiro[4.5]decan-1-one]",160
22,"CCc1ccc(N2CCC3(CCN(S(=O)(=O)c4ccccc4C(F)(F)F)CC3)C2=O)cc1 [Example 67, 2-(4-Ethyl-phenyl)-8-(2-trifluoromethyl-benzenesulfonyl)-2,8-diaza-spiro[4.5]decan-1-one]",60
